Values quoted from earlier work as cited in publication PMC11419783 (Blood, 2024).

Experiments:
[1] = test system: KMT2A-r cell lines engineered to express mutant menin (M327I or T349M); settings: M327I or T349M in endogenous MEN1-coding sequence
[2] = test system: KMT2A and NPM1 altered R/R acute leukemia; settings: recommended phase 2 dose, NPM1-altered disease
[3] = test system: Recombinant mutant MEN1 (MEN1^M327I, MEN1^T349M)

SMILES | sensitivity of menin-mutant cell lines to antiproliferative effects [1] | complete remission/complete remission with partial recovery of peripheral blood counts [2] [%] | binding affinity to mutant MEN1 [3]
CNc1nc(NC2CCN(Cc3ccc4c(cc(C#N)n4CC45CC(NC=O)(C4)C5)c3C)CC2)c2cc(CC(F)(F)F)sc2n1 [MI3454] | resistant |  | 
COc1cc(-c2ccc(CN[C@H]3C[C@@H](O)[C@@H](N(C)c4ncnc5sc(CC(F)(F)F)cc45)C3)cc2)nnc1OC [DS-1594] | resistant |  | 
CNc1nc(NC2CCN(Cc3ccc4c(cc(C#N)n4C[C@H](C)N4CCN(S(C)(=O)=O)CC4)c3C)CC2)c2cc(CC(F)(F)F)sc2n1 [ziftomenib] |  | 35 | 
CCN(C(=O)c1cc(F)ccc1Oc1cncnc1N1CC2(CCN(C[C@H]3CC[C@H](NS(=O)(=O)CC)CC3)CC2)C1)C(C)C [revumenib] | resistant |  | significant reduction in binding affinity
